Measurements published in ChEMBL document CHEMBL4418268, “Nitrogen-containing heterocyclic compound” (2018).

test system: HUVEC; assay: Inhibition of TNF-alpha-induced CXCL10 production in HUVEC cells at 0.1 uM incubated for 1 hr followed by TNF-alpha addition and measured after 72 hrs by ELISA relative to control; format: functional; conditions: Homo sapiens

| Structure (SMILES) | inhibition at 0.1 µM [%] |
| --- | --- |
| CCn1c(=O)cc(C2CCN(C)CC2)c2cc(C(=O)N3CCCc4ccccc43)ccc21 | ≥ 50 |
| CCn1c(=O)cc(N2CCOCC2)c2cc(-n3c(-c4ccc(C(F)(F)F)cc4)c[nH]c3=O)ccc21 | ≥ 50 |
| CCn1cc(-c2ccccc2)n(-c2ccc3c(c2)c(N2CCOCC2)cc(=O)n3CC)c1=O | ≥ 50 |
| CCCCn1cc(-c2ccccc2)n(-c2ccc3c(c2)c(N2CCOCC2)cc(=O)n3CC)c1=O | ≥ 50 |
| CCn1c(=O)cc(N2CCOCC2)c2cc(-n3c(-c4ccc(C)cc4)c[nH]c3=O)ccc21 | ≥ 50 |
| CCN1CCC(c2cc(=O)n(CC)c3ccc(C(=O)N(C)c4ccccc4)cc23)CC1 | ≥ 50 |
| CCn1c(=O)cc(N2CCOCC2)c2cc(-n3c(-c4ccccc4)cn(CCO)c3=O)ccc21 | ≥ 50 |
| CCn1c(=O)cc(C2CC2)c2cc(-n3c(C)cc(=O)n3-c3ccccc3)ccc21 | ≥ 50 |
| CCn1c(=O)cc(C2CC2)c2cc(-c3cccnc3-c3ccccc3)ccc21 | ≥ 50 |
| CCn1c(=O)cc(N2CCOCC2)c2cc(-n3c(-c4ccccc4)cn(CCN4CCOCC4)c3=O)ccc21 | ≥ 50 |
| CCn1c(=O)cc(N2CCOCC2)c2cc(-c3nccn3-c3ccccc3)ccc21 | ≥ 50 |
| CCn1c(=O)cc(C2CC2)c2cc(N3C(=O)C(C)C(=O)N3c3ccccc3)ccc21 (stereo unspecified) | ≥ 50 |
| CCn1c(=O)cc(N2CCOCC2)c2cc(-n3ccnc3-c3ccccc3)ccc21 | ≥ 50 |
| CCn1c(=O)cc(C2CC2)c2cc(-n3c(-c4ccc(Cl)cc4)c[nH]c3=O)ccc21 | ≥ 50 |
| CCn1c(=O)cc(N2CCOCC2)c2cc(-n3c(-c4ccccc4)cn(CCN4CCCCC4)c3=O)ccc21 | ≥ 50 |
| CCn1c(=O)cc(N2CCOCC2)c2cc(-n3c(-c4ccccc4)cn(CCN(C)C)c3=O)ccc21 | ≥ 50 |
| CCn1c(=O)cc(C2CCN(C)CC2)c2cc(C(=O)N(C)c3ccc(C)c(Cl)c3)ccc21 | ≥ 50 |
| CCn1c(=O)cc(C2CC2)c2cc(-n3c(-c4ccc(C(F)(F)F)cc4)cn(C)c3=O)ccc21 | ≥ 50 |
| CCn1c(=O)cc(C2CCN(C)CC2)c2cc(C(=O)N(C)c3ccc(C)c(C)c3)ccc21 | ≥ 50 |
| CCn1c(=O)cc(C2CC2)c2cc(-c3nc(C)nn3-c3ccccc3)ccc21 | ≥ 50 |
| CCn1c(=O)cc(C2CCN(C)CC2)c2cc(C(=O)N(C)c3ccc4c(c3)CCC4)ccc21 | ≥ 50 |
| CCC1C(=O)N(c2ccccc2)N(c2ccc3c(c2)c(C2CC2)cc(=O)n3CC)C1=O (stereo unspecified) | ≥ 50 |
| CCn1c(=O)cc(N2CCOCC2)c2cc(-n3c(-c4ccc(C(F)(F)F)cc4)cn(C)c3=O)ccc21 | ≥ 50 |
| CCn1c(=O)cc(N2CCOCC2)c2cc(N(C)C(=O)c3ccc(Cl)cc3)ccc21 | ≥ 50 |
| CCn1c(=O)cc(N2CCOCC2)c2cc(-n3c(-c4ccccc4)cn(C(C)C)c3=O)ccc21 | ≥ 50 |
| CCn1c(=O)cc(N2CCOCC2)c2cc(-n3c(-c4ccc(Cl)cc4)c[nH]c3=O)ccc21 | ≥ 50 |

| Structure (SMILES) | inhibition at 0.1 µM [%] |
| --- | --- |
| CCn1c(=O)cc(N2CCOCC2)c2cc(-c3cccnc3-c3ccccc3)ccc21 | ≥ 50 |
| CCn1c(=O)cc(C2CCN(C)CC2)c2cc(C(=O)N(C)c3ccc(C)cc3)ccc21 | ≥ 50 |
| CCn1c(=O)cc(N2CCOCC2)c2cc(-n3cc(C)nc3-c3ccccc3)ccc21 | ≥ 50 |
| CCn1c(=O)cc(C2CC2)c2cc(-n3c(=O)[nH]c(=O)n3-c3ccccc3)ccc21 | ≥ 50 |
| CCn1c(=O)cc(C2CC2)c2cc(N3C(=O)CC[C@H]3c3ccccc3)ccc21 | ≥ 50 |
| CCn1c(=O)cc(C2CC2)c2cc(-n3c(=O)cc(C)n3-c3ccccc3)ccc21 | ≥ 50 |
| CCn1c(=O)cc(N2CCOCC2)c2cc(-c3ccccc3-c3ccccc3)ccc21 | ≥ 50 |
| CCn1c(=O)cc(C2CC2)c2cc(-c3nc(C)[nH]c3-c3ccccc3)ccc21 | ≥ 50 |
| CCCn1cc(-c2ccccc2)n(-c2ccc3c(c2)c(N2CCOCC2)cc(=O)n3CC)c1=O | ≥ 50 |
| CCn1c(=O)cc(N2CCOCC2)c2cc(-n3c(-c4ccc(Cl)cc4)cn(C)c3=O)ccc21 | ≥ 50 |
| CCn1c(=O)cc(N2CCOCC2)c2cc(N3C(=O)CC[C@H]3c3ccccc3)ccc21 | ≥ 50 |
| CCn1c(=O)cc(C(C)C)c2cc(N(C)C(=O)c3ccc(Cl)cc3)ccc21 | ≥ 50 |
| CCn1c(=O)cc(C2CC2)c2cc(-n3c(-c4ccc(C)cc4)c[nH]c3=O)ccc21 | ≥ 50 |
| CCn1c(=O)cc(C2CC2)c2cc(-n3c(-c4ccc(Cl)cc4)cn(C)c3=O)ccc21 | ≥ 50 |
| CCn1c(=O)cc(C2CCN(C)CC2)c2cc(C(=O)N(C)c3ccc(C)c(F)c3)ccc21 | ≥ 50 |
| CCn1c(=O)cc(C2CC2)c2cc(-c3nccnc3-c3ccccc3)ccc21 | ≥ 50 |
| CCn1c(=O)cc(C)c2cc(-c3cccnc3-c3ccccc3)ccc21 | ≥ 50 |
| CCn1c(=O)cc(N2CCOCC2)c2cc(-n3c(-c4ccc(C)cc4)cn(C)c3=O)ccc21 | ≥ 50 |
| CCn1c(=O)cc(C2CCC(O)CC2)c2cc(C(=O)N(C)c3ccc(Cl)cc3)ccc21 (stereo unspecified) | ≥ 50 |
| CCn1c(=O)cc(N2CCOCC2)c2cc(-n3c(-c4ccccc4)cn(CCOC)c3=O)ccc21 | ≥ 50 |
| CCn1c(=O)cc(C2CC2)c2cc(N(C)C(=O)c3ccccc3)ccc21 | ≥ 50 |
| CCn1c(=O)cc(N2CCOCC2)c2cc(-n3c(-c4ccccc4)c[nH]c3=O)ccc21 | ≥ 50 |
| CCn1c(=O)cc(C2CC2)c2cc(-n3c(-c4ccc(C(F)(F)F)cc4)c[nH]c3=O)ccc21 | ≥ 50 |
| CCn1c(=O)cc(C2CC2)c2cc(-n3c(-c4ccc(C)cc4)cn(C)c3=O)ccc21 | ≥ 50 |
| CCn1c(=O)cc(C2CCN(C(C)=O)CC2)c2cc(C(=O)N(C)c3ccc(C)cc3)ccc21 | ≥ 50 |
